Data taken from PubChem BioAssay (NCI).
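Five compound concentrations were applied to cells in 96-well plates for 48 hours; endpoints were derived by simple linear interpolation of the resulting dose-response curve. GI50 = concentration required for 50% inhibition of growth. TGI marks complete inhibition of growth.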

Tests used:
Experiment in all cases: NCI tumour cell line growth inhibition, 48 h
SF-539 CNS = tested on: SF-539 CNS
NCI-H522 lung = tested on: NCI-H522 lung
DU-145 prostate = tested on: DU-145 prostate
ACHN renal = tested on: ACHN renal
HOP-62 NSCLC = tested on: HOP-62 NSCLC
A549 NSCLC = tested on: A549 NSCLC
SNB-75 CNS = tested on: SNB-75 CNS
M14 melanoma = tested on: M14 melanoma
COLO 205 colon = tested on: COLO 205 colon
786-0 renal = tested on: 786-0 renal
K-562 leukemia = tested on: K-562 leukemia
OVCAR-5 ovarian = tested on: OVCAR-5 ovarian
CCRF-CEM leukemia = tested on: CCRF-CEM leukemia
NCI-H23 lung = tested on: NCI-H23 lung
HCC-2998 colon = tested on: HCC-2998 colon
RPMI-8226 leukemia = tested on: RPMI-8226 leukemia
RXF 393 renal = tested on: RXF 393 renal
KM12 colon = tested on: KM12 colon
HCT-116 colon = tested on: HCT-116 colon
OVCAR-3 ovarian = tested on: OVCAR-3 ovarian
CAKI-1 renal = tested on: CAKI-1 renal
MDA-MB-468 breast = tested on: MDA-MB-468 breast
SNB-19 CNS = tested on: SNB-19 CNS
HCT-15 colon = tested on: HCT-15 colon
SK-MEL-28 melanoma = tested on: SK-MEL-28 melanoma
SK-MEL-5 melanoma = tested on: SK-MEL-5 melanoma
PC-3 prostate = tested on: PC-3 prostate
OVCAR-8 ovarian = tested on: OVCAR-8 ovarian
SF-268 CNS = tested on: SF-268 CNS
UACC-257 melanoma = tested on: UACC-257 melanoma
TK-10 renal = tested on: TK-10 renal
MDA-MB-231 breast = tested on: MDA-MB-231 breast
LOX IMVI melanoma = tested on: LOX IMVI melanoma
SW-620 colon = tested on: SW-620 colon
NCI-H460 lung = tested on: NCI-H460 lung
HS 578T breast = tested on: HS 578T breast
T-47D breast = tested on: T-47D breast
MDA-MB-435 = tested on: MDA-MB-435
A498 renal = tested on: A498 renal
HOP-92 NSCLC = tested on: HOP-92 NSCLC
SK-MEL-2 melanoma = tested on: SK-MEL-2 melanoma
U251 CNS = tested on: U251 CNS
SK-OV-3 ovarian = tested on: SK-OV-3 ovarian
HL-60(TB) leukemia = tested on: HL-60(TB) leukemia
UACC-62 melanoma = tested on: UACC-62 melanoma
MOLT-4 leukemia = tested on: MOLT-4 leukemia
SF-295 CNS = tested on: SF-295 CNS
OVCAR-4 ovarian = tested on: OVCAR-4 ovarian
NCI/ADR-RES ovarian = tested on: NCI/ADR-RES ovarian
MCF7 breast = tested on: MCF7 breast
IGROV1 ovarian = tested on: IGROV1 ovarian
SN12C renal = tested on: SN12C renal
EKVX NSCLC = tested on: EKVX NSCLC
BT-549 breast = tested on: BT-549 breast
MALME-3M melanoma = tested on: MALME-3M melanoma
HT29 colon = tested on: HT29 colon
SR leukemia = tested on: SR leukemia
NCI-H226 lung = tested on: NCI-H226 lung
UO-31 renal = tested on: UO-31 renal

Structure (SMILES): N#Cc1c(NC(=O)c2ccc(C(F)(F)F)cc2)sc2c1CCC(=O)C2
- GI50 (SF-539 CNS): 300 nM
- TGI (SF-539 CNS): 1060 nM
- GI50 (NCI-H522 lung): 273 nM
- TGI (NCI-H522 lung): 951 nM
- GI50 (DU-145 prostate): 3750 nM
- TGI (DU-145 prostate): > 100000 nM
- GI50 (ACHN renal): 390 nM
- TGI (ACHN renal): 1400 nM
- GI50 (HOP-62 NSCLC): 2840 nM
- TGI (HOP-62 NSCLC): 11400 nM
- GI50 (A549 NSCLC): 3520 nM
- TGI (A549 NSCLC): 16300 nM
- GI50 (SNB-75 CNS): 1910 nM
- TGI (SNB-75 CNS): 5250 nM
- GI50 (M14 melanoma): 1010 nM
- TGI (M14 melanoma): 2850 nM
- GI50 (COLO 205 colon): 951 nM
- TGI (COLO 205 colon): 2330 nM
- GI50 (786-0 renal): 2500 nM
- TGI (786-0 renal): > 41200 nM
- GI50 (K-562 leukemia): 316 nM
- GI50 (OVCAR-5 ovarian): 1680 nM
- TGI (OVCAR-5 ovarian): 3500 nM
- GI50 (CCRF-CEM leukemia): 345 nM
- TGI (CCRF-CEM leukemia): > 33300 nM
- GI50 (NCI-H23 lung): 402 nM
- TGI (NCI-H23 lung): 2090 nM
- GI50 (HCC-2998 colon): 1430 nM
- TGI (HCC-2998 colon): 2930 nM
- GI50 (RPMI-8226 leukemia): 273 nM
- TGI (RPMI-8226 leukemia): > 100000 nM
- GI50 (RXF 393 renal): 271 nM
- TGI (RXF 393 renal): 1230 nM
- GI50 (KM12 colon): 1280 nM
- TGI (KM12 colon): 4700 nM
- GI50 (HCT-116 colon): 359 nM
- TGI (HCT-116 colon): 2090 nM
- GI50 (OVCAR-3 ovarian): 844 nM
- TGI (OVCAR-3 ovarian): 3200 nM
- GI50 (CAKI-1 renal): 572 nM
- TGI (CAKI-1 renal): 2060 nM
- GI50 (MDA-MB-468 breast): 557 nM
- TGI (MDA-MB-468 breast): 2270 nM
- GI50 (SNB-19 CNS): 2200 nM
- TGI (SNB-19 CNS): 13100 nM
- GI50 (HCT-15 colon): 362 nM
- TGI (HCT-15 colon): 1450 nM
- GI50 (SK-MEL-28 melanoma): 820 nM
- TGI (SK-MEL-28 melanoma): 2110 nM
- GI50 (SK-MEL-5 melanoma): 1350 nM
- TGI (SK-MEL-5 melanoma): 2640 nM
- GI50 (PC-3 prostate): 410 nM
- TGI (PC-3 prostate): 2790 nM
- GI50 (OVCAR-8 ovarian): 1390 nM
- TGI (OVCAR-8 ovarian): 5900 nM
- GI50 (SF-268 CNS): 2160 nM
- TGI (SF-268 CNS): 11500 nM
- GI50 (UACC-257 melanoma): 2150 nM
- TGI (UACC-257 melanoma): > 22800 nM
- GI50 (TK-10 renal): 1050 nM
- TGI (TK-10 renal): 6850 nM
- GI50 (MDA-MB-231 breast): 701 nM
- TGI (MDA-MB-231 breast): 1980 nM
- GI50 (LOX IMVI melanoma): 350 nM
- TGI (LOX IMVI melanoma): 1480 nM
- GI50 (SW-620 colon): 411 nM
- TGI (SW-620 colon): 1820 nM
- GI50 (NCI-H460 lung): 2860 nM
- TGI (NCI-H460 lung): 11800 nM
- GI50 (HS 578T breast): 1170 nM
- TGI (HS 578T breast): 5020 nM
- GI50 (T-47D breast): 322 nM
- TGI (T-47D breast): 1380 nM
- GI50 (MDA-MB-435): 1400 nM
- TGI (MDA-MB-435): 2970 nM
- GI50 (A498 renal): 24600 nM
- TGI (A498 renal): 87500 nM
- GI50 (HOP-92 NSCLC): 1190 nM
- TGI (HOP-92 NSCLC): 3560 nM
- GI50 (SK-MEL-2 melanoma): 2070 nM
- TGI (SK-MEL-2 melanoma): 4890 nM
- GI50 (U251 CNS): 622 nM
- TGI (U251 CNS): 2470 nM
- GI50 (SK-OV-3 ovarian): 2430 nM
- TGI (SK-OV-3 ovarian): 6870 nM
- GI50 (HL-60(TB) leukemia): 436 nM
- TGI (HL-60(TB) leukemia): > 33200 nM
- GI50 (UACC-62 melanoma): 691 nM
- TGI (UACC-62 melanoma): 2000 nM
- GI50 (MOLT-4 leukemia): 419 nM
- TGI (MOLT-4 leukemia): > 30100 nM
- GI50 (SF-295 CNS): 1290 nM
- TGI (SF-295 CNS): 2960 nM
- GI50 (OVCAR-4 ovarian): 1120 nM
- TGI (OVCAR-4 ovarian): 2780 nM
- GI50 (NCI/ADR-RES ovarian): 718 nM
- TGI (NCI/ADR-RES ovarian): 2930 nM
- GI50 (MCF7 breast): 553 nM
- TGI (MCF7 breast): 10100 nM
- GI50 (IGROV1 ovarian): 1230 nM
- TGI (IGROV1 ovarian): 2740 nM
- GI50 (SN12C renal): 539 nM
- TGI (SN12C renal): 3200 nM
- GI50 (EKVX NSCLC): 1320 nM
- TGI (EKVX NSCLC): 3660 nM
- GI50 (BT-549 breast): 1070 nM
- TGI (BT-549 breast): 2510 nM
- GI50 (MALME-3M melanoma): 1150 nM
- TGI (MALME-3M melanoma): 2730 nM
- GI50 (HT29 colon): 465 nM
- TGI (HT29 colon): 2060 nM
- GI50 (SR leukemia): 522 nM
- TGI (SR leukemia): > 100000 nM
- GI50 (NCI-H226 lung): 2180 nM
- TGI (NCI-H226 lung): 7910 nM
- GI50 (UO-31 renal): 467 nM
- TGI (UO-31 renal): 1700 nM
